Starred links: 1 amine or outer side, 2 acyl side, 3 side chain; linkers in the order of their positions; H or OH if unused. Positions of bridges follow the written chain, without caps; N, C: chain ends. Non-standard residues stand in square brackets, D forms with d. Residues, ends and D or L forms follow the SMILES beside them. Groups on a side chain read outwards from the residue. *: point of attachment. X68 = COCCOCCOCCOCCOCCOCCC(=O)N(CCCC[C@@H](N[*:1])C(=O)[*:2])C(C)=O; Me3N+CH2CH2(OCH2CH2)4CO = C[N+](C)(C)CCOCCOCCOCCOCCC(=O)*; Trp(7-Me) = Cc1cccc2c(C[C@H](N)C(=O)O)c[nH]c12; 3Oxa8azabicyclo(3.2.1)octane = C1CC2COCC1N2*; Hexanoyl(6-NMe3+) = C[N+](C)(C)CCCCCC(=O)*; Lys(Me3) = C[N+](C)(C)CCCC[C@H](N)C(=O)O; 2Nal = N[C@@H](Cc1ccc2ccccc2c1)C(=O)O; AEF = NCCOc1ccc(C[C@H](N)C(=O)O)cc1; X19 = C[N+](C)(C)C[C@@H](CC(=O)O)N*; X10 = C[N+](C)(C)C[C@H](CC(=O)O)N*; dLys(Me) = CNCCCC[C@@H](N)C(=O)O; 3Pal = N[C@@H](Cc1cccnc1)C(=O)O; Lys(Me) = CNCCCC[C@H](N)C(=O)O; NHCH2CH2OCH2CH2OMe = COCCOCCN*; X7 = COCCOCCOCCOCCOCCOCCC(=O)*; Pen = CC(C)(S)[C@H](N)C(=O)O; Suc = O=C(CCC(=O)[*:2])[*:1]; Thp = NC1(C(=O)O)CCOCC1; Dap = NC[C@H](N)C(=O)O; Me2NCH2CH2 = CN(C)CC*; Sar = CNCC(=O)O
Test: Exposed Polar Surface Area (EPSA)
Type: physicochemical
Conditions: SFC on Chirex 3014 column; sample 1 mM DMSO stock; read-out: EPSA
Summary of the method: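 Polarity measured by SFC on a Chirex 3014 column (35 °C, 4 mL/min) with methanol/ammonium formate in CO2 as gradient eluent. Retention times were normalised to EPSA (Å^2) against eight reference compounds.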
Molecule `CC(=O)NCCCC[C@@H]1NC(=O)[C@H](Cc2c[nH]c3c(C)cccc23)NC(=O)[C@H]([C@@H](C)O)NC(=O)[C@H](CC(N)=O)NC(=O)[C@@H](NC(C)=O)C(C)(C)SSC(C)(C)[C@@H](C(=O)N[C@@H](Cc2ccc(OCCN)cc2)C(=O)N[C@@H](Cc2ccc3ccccc3c2)C(=O)NC2(C(=O)N[C@@H](CCCCNC(=O)CCC(=O)N[C@H](CC(=O)O)C[N+](C)(C)C)C(=O)N[C@@H](CC(N)=O)C(=O)N[C@@H](Cc3cccnc3)C(=O)N(C)CC(N)=O)CCOCC2)NC1=O` [compound 109] (Ac-[Pen]NT[Trp(7-Me)]K(Ac)[Pen][AEF][2Nal][Thp]K([Suc-X19])N[3Pal][Sar]-NH2; disulfide 1-6) has an EPSA of 171 A^2.
`CC(=O)NCCCC[C@@H]1NC(=O)[C@H](Cc2c[nH]c3c(C)cccc23)NC(=O)[C@H]([C@@H](C)O)NC(=O)[C@H](CC(N)=O)NC(=O)[C@@H](NC(C)=O)C(C)(C)SSC(C)(C)[C@@H](C(=O)N[C@@H](Cc2ccc(OCCN)cc2)C(=O)N[C@@H](Cc2ccc3ccccc3c2)C(=O)NC2(C(=O)N[C@@H](CCCCNC(=O)CCC(=O)N[C@@H](CC(=O)O)C[N+](C)(C)C)C(=O)N[C@@H](CC(N)=O)C(=O)N[C@@H](Cc3cccnc3)C(=O)N(C)CC(N)=O)CCOCC2)NC1=O` [compound 110] (Ac-[Pen]NT[Trp(7-Me)]K(Ac)[Pen][AEF][2Nal][Thp]K([Suc-X10])N[3Pal][Sar]-NH2; disulfide 1-6) gave an EPSA of 171 A^2.
For `CC(=O)NCCCC[C@@H]1NC(=O)[C@H](Cc2c[nH]c3c(C)cccc23)NC(=O)[C@H]([C@@H](C)O)NC(=O)[C@H](CC(N)=O)NC(=O)[C@@H](NC(C)=O)C(C)(C)SSC(C)(C)[C@@H](C(=O)N[C@@H](Cc2ccc(OCCN)cc2)C(=O)N[C@@H](Cc2ccc3ccccc3c2)C(=O)NC2(C(=O)N[C@H](CCCCN(C)C(=O)CCOCCOCCOCCOCC[N+](C)(C)C)C(=O)N[C@@H](CC(N)=O)C(=O)N[C@@H](Cc3cccnc3)C(=O)N(C)CC(N)=O)CCOCC2)NC1=O` [compound 111] (Ac-[Pen]NT[Trp(7-Me)]K(Ac)[Pen][AEF][2Nal][Thp][dLys(Me)](Me3N+CH2CH2(OCH2CH2)4CO)N[3Pal][Sar]-NH2; disulfide 1-6), the EPSA was 153 A^2.
`CC(=O)NCCCC[C@@H]1NC(=O)[C@H](Cc2c[nH]c3c(C)cccc23)NC(=O)[C@H]([C@@H](C)O)NC(=O)[C@H](CC(N)=O)NC(=O)[C@@H](NC(C)=O)C(C)(C)SSC(C)(C)[C@@H](C(=O)N[C@@H](Cc2ccc(OCCN)cc2)C(=O)N[C@@H](Cc2ccc3ccccc3c2)C(=O)NC2(C(=O)N[C@@H](CCC(=O)O)C(=O)N[C@@H](CC(N)=O)C(=O)N[C@@H](Cc3cccnc3)C(=O)N(C)CC(=O)N3C4CCC3COC4)CCOCC2)NC1=O` [compound 115] (Ac-[Pen]NT[Trp(7-Me)]K(Ac)[Pen][AEF][2Nal][Thp]EN[3Pal][Sar]-{3Oxa8azabicyclo(3.2.1)octane}; disulfide 1-6) showed an EPSA of 171 A^2.
Molecule `COCCOCCNC(=O)CN(C)C(=O)[C@H](Cc1cccnc1)NC(=O)[C@H](CC(N)=O)NC(=O)[C@H](CCC(=O)O)NC(=O)C1(NC(=O)[C@H](Cc2ccc3ccccc3c2)NC(=O)[C@H](Cc2ccc(OCCN)cc2)NC(=O)[C@H]2NC(=O)[C@H](CCCCNC(C)=O)NC(=O)[C@H](Cc3c[nH]c4c(C)cccc34)NC(=O)[C@H]([C@@H](C)O)NC(=O)[C@H](CC(N)=O)NC(=O)[C@@H](NC(C)=O)C(C)(C)SSC2(C)C)CCOCC1` [compound 116] (Ac-[Pen]NT[Trp(7-Me)]K(Ac)[Pen][AEF][2Nal][Thp]EN[3Pal][Sar]-NHCH2CH2OCH2CH2OMe; disulfide 1-6 (inferred)) has an EPSA of 170 A^2.
For `CC(=O)N[C@@H]1C(=O)N[C@@H](CC(=O)N(C)C)C(=O)N[C@@H]([C@@H](C)O)C(=O)N[C@@H](Cc2c[nH]c3c(C)cccc23)C(=O)N[C@@H](CCCC[N+](C)(C)C)C(=O)N[C@H](C(=O)N[C@@H](Cc2ccc(OCCN(C)C)cc2)C(=O)N[C@@H](Cc2ccc3ccccc3c2)C(=O)NC2(C(=O)N[C@@H](CCCC[N+](C)(C)C)C(=O)N[C@@H](CC(N)=O)C(=O)N[C@@H](Cc3cccnc3)C(=O)N(C)CC(=O)N(C)C)CCOCC2)C(C)(C)SSC1(C)C` [compound 117, MeCO-Pen(3)-N(N(Me)2)-T-7MeW-K(Me)3-Pen(3)-AEF(N(Me)2)-2Nal-THP-K(Me)3-N-3Pya-Sar-CON(Me)2] (Ac-[Pen]D(NMe2)T[Trp(7-Me)][Lys(Me3)][Pen]Y(Me2NCH2CH2)[2Nal][Thp][Lys(Me3)]N[3Pal][Sar]-NMe2; disulfide 1-6), the EPSA was 139 A^2.
`CC(=O)N[C@@H]1C(=O)N[C@@H](CC(=O)N(C)C)C(=O)N[C@@H]([C@@H](C)O)C(=O)N[C@@H](Cc2c[nH]c3c(C)cccc23)C(=O)N[C@@H](CCC(=O)N(C)C)C(=O)N[C@H](C(=O)N[C@@H](Cc2ccc(OCCN(C)C)cc2)C(=O)N[C@@H](Cc2ccc3ccccc3c2)C(=O)NC2(C(=O)N[C@@H](CCC(=O)O)C(=O)N[C@@H](CC(N)=O)C(=O)N[C@@H](Cc3cccnc3)C(=O)N(C)CC(=O)N(C)C)CCOCC2)C(C)(C)SSC1(C)C` [compound 120, MeCO-Pen(3)-N(N(Me)2)-T-7MeW-Q(N(Me)2)-Pen(3)-AEF(N(Me)2)-2Nal-THP-E-N-3Pya-Sar-CON(Me)2] (Ac-[Pen]D(NMe2)T[Trp(7-Me)]E(NMe2)[Pen]Y(Me2NCH2CH2)[2Nal][Thp]EN[3Pal][Sar]-NMe2; disulfide 1-6) gave an EPSA of 153 A^2.
With `COCCOCCOCCOCCOCCOCCC(=O)N(CCCC[C@@H](NC(=O)C1(NC(=O)[C@H](Cc2ccc3ccccc3c2)NC(=O)[C@H](Cc2ccc(OCCN)cc2)NC(=O)[C@H]2NC(=O)[C@H](CCCCNC(C)=O)NC(=O)[C@H](Cc3c[nH]c4c(C)cccc34)NC(=O)[C@H]([C@@H](C)O)NC(=O)[C@H](CC(N)=O)NC(=O)[C@@H](NC(C)=O)C(C)(C)SSC2(C)C)CCOCC1)C(=O)N[C@@H](CC(N)=O)C(=O)N[C@@H](Cc1cccnc1)C(=O)N(C)CC(N)=O)C(C)=O` [compound 123] (Ac-[Pen]NT[Trp(7-Me)]K(Ac)[Pen][AEF][2Nal][Thp][X68]N[3Pal][Sar]-NH2; disulfide 1-6) the EPSA was 156 A^2.
With `COCCOCCOCCOCCOCCOCCC(=O)N(C)CCCC[C@@H]1NC(=O)[C@H](Cc2c[nH]c3c(C)cccc23)NC(=O)[C@H]([C@@H](C)O)NC(=O)[C@H](CC(N)=O)NC(=O)[C@@H](NC(C)=O)C(C)(C)SSC(C)(C)[C@@H](C(=O)N[C@@H](Cc2ccc(OCCN)cc2)C(=O)N[C@@H](Cc2ccc3ccccc3c2)C(=O)NC2(C(=O)N[C@@H](CCCCNC(C)=O)C(=O)N[C@@H](CC(N)=O)C(=O)N[C@@H](Cc3cccnc3)C(=O)N(C)CC(N)=O)CCOCC2)NC1=O` [compound 124] (Ac-[Pen]NT[Trp(7-Me)][Lys(Me)](X7)[Pen][AEF][2Nal][Thp]K(Ac)N[3Pal][Sar]-NH2; disulfide 1-6) the EPSA was 158 A^2.
For `CC(=O)NCCCC[C@@H]1NC(=O)[C@H](Cc2c[nH]c3c(C)cccc23)NC(=O)[C@H]([C@@H](C)O)NC(=O)[C@H](CC(N)=O)NC(=O)[C@@H](NC(=O)[C@@H](CCC(=O)N[C@@H](CC(=O)O)C[N+](C)(C)C)NC(C)=O)C(C)(C)SSC(C)(C)[C@@H](C(=O)N[C@@H](Cc2ccc(OCCN)cc2)C(=O)N[C@@H](Cc2ccc3ccccc3c2)C(=O)NC2(C(=O)N[C@@H](CCCCNC(C)=O)C(=O)N[C@@H](CC(N)=O)C(=O)N[C@@H](Cc3cccnc3)C(=O)N(C)CC(N)=O)CCOCC2)NC1=O` [compound 126] (Ac-[dE](X10)[Pen]NT[Trp(7-Me)]K(Ac)[Pen][AEF][2Nal][Thp]K(Ac)N[3Pal][Sar]-NH2; disulfide 2-7), the EPSA was 184 A^2.
Work on `CC(=O)NCCCC[C@@H]1NC(=O)[C@H](Cc2c[nH]c3c(C)cccc23)NC(=O)[C@H]([C@@H](C)O)NC(=O)[C@H](CC(N)=O)NC(=O)[C@@H](NC(C)=O)C(C)(C)SSC(C)(C)[C@@H](C(=O)N[C@@H](Cc2ccc(OCCN)cc2)C(=O)N[C@@H](Cc2ccc3ccccc3c2)C(=O)NC2(C(=O)N[C@@H](CCC(=O)N[C@H](CC(=O)O)C[N+](C)(C)C)C(=O)N[C@@H](CC(N)=O)C(=O)N[C@@H](Cc3cccnc3)C(=O)N(C)CC(N)=O)CCOCC2)NC1=O` [compound 127] (Ac-[Pen]NT[Trp(7-Me)]K(Ac)[Pen][AEF][2Nal][Thp]E(X19)N[3Pal][Sar]-NH2; disulfide 1-6) yielded an EPSA of 179 A^2.
Work on `CC(=O)NCCCC[C@@H]1NC(=O)[C@H](Cc2c[nH]c3c(C)cccc23)NC(=O)[C@H]([C@@H](C)O)NC(=O)[C@H](CC(N)=O)NC(=O)[C@@H](NC(C)=O)C(C)(C)SSC(C)(C)[C@@H](C(=O)N[C@@H](Cc2ccc(OCCN)cc2)C(=O)N[C@@H](Cc2ccc3ccccc3c2)C(=O)NC2(C(=O)N[C@@H](CCC(=O)N[C@@H](CC(=O)O)C[N+](C)(C)C)C(=O)N[C@@H](CC(N)=O)C(=O)N[C@@H](Cc3cccnc3)C(=O)N(C)CC(N)=O)CCOCC2)NC1=O` [compound 128] (Ac-[Pen]NT[Trp(7-Me)]K(Ac)[Pen][AEF][2Nal][Thp]E(X10)N[3Pal][Sar]-NH2; disulfide 1-6) yielded an EPSA of 175 A^2.
Work on `COCCOCCOCCOCCOCCOCCOCCOCCNC(=O)CN(C)C(=O)[C@H](Cc1cccnc1)NC(=O)[C@H](CC(N)=O)NC(=O)[C@H](CCC(=O)O)NC(=O)C1(NC(=O)[C@H](Cc2ccc3ccccc3c2)NC(=O)[C@H](Cc2ccc(OCCN)cc2)NC(=O)[C@H]2NC(=O)[C@H](CCCCNC(C)=O)NC(=O)[C@H](Cc3c[nH]c4c(C)cccc34)NC(=O)[C@H]([C@@H](C)O)NC(=O)[C@H](CC(N)=O)NC(=O)[C@@H](NC(C)=O)C(C)(C)SSC2(C)C)CCOCC1` [compound 132] yielded an EPSA of 163 A^2.
`CC(=O)NC[C@H](NC(=O)C1(NC(=O)[C@H](Cc2ccc3ccccc3c2)NC(=O)[C@H](Cc2ccc(OCCN(C)C)cc2)NC(=O)[C@H]2NC(=O)[C@H](CCCCN(C)C(C)=O)NC(=O)[C@H](Cc3c[nH]c4c(C)cccc34)NC(=O)[C@H]([C@@H](C)O)NC(=O)[C@H](CC(=O)N(C)C)NC(=O)[C@@H](NC(=O)CCCCC[N+](C)(C)C)C(C)(C)SSC2(C)C)CCOCC1)C(=O)N[C@@H](CC(N)=O)C(=O)N[C@@H](Cc1cccnc1)C(=O)N(C)CC(=O)N(C)C` [compound 133, 5cpaCO-Pen(3)-N(N(Me)2)-T-7MeW-K(NMeAc)-Pen(3)-AEF(N(Me)2)-2Nal-THP-Dap(Ac)-N-3Pya-Sar-CON(Me)2] ({Hexanoyl(6-NMe3+)}-[Pen]D(NMe2)T[Trp(7-Me)][Lys(Me)](Ac)[Pen]Y(Me2NCH2CH2)[2Nal][Thp][Dap](Ac)N[3Pal][Sar]-NMe2; disulfide 1-6 (inferred)) gave an EPSA of 151 A^2.

Source: patent US20260022143A1, “Cyclic Peptide Inhibitors of IL-23” (JANSSEN PHARMACEUTICA NV, priority 2022, published 2026)
